One block for each compound: values may come before it.
How the values were obtained:
purified HDAC8 = target: T1, purified HDAC8 (Homo sapiens, UniProt Q9BY41); assay: small-molecule microarray; assay type: binding; settings: SMM screen
T1 sequence (Q9BY41 1-377): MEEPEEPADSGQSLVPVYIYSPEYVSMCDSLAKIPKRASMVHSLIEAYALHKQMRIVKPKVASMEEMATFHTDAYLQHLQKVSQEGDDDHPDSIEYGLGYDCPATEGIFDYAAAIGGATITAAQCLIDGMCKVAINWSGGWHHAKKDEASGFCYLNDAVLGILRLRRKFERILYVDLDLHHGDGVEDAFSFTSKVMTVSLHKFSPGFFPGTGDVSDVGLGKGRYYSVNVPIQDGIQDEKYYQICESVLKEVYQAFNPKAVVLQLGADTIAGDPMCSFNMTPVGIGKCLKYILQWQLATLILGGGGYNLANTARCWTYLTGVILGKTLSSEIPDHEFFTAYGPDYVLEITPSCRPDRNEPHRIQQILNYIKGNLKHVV

trypsin = trypsin counter screen
[1] = tested on: acetylated α-tubulin in HeLa cells; assay: immunofluorescence, acetylated α-tubulin in HeLa cells; assay type: cell-based; settings: 16 h, normalized to DMSO control
[2] = tested on: acetylated lysine in HeLa cells; assay: immunofluorescence, acetylated lysine in HeLa cells; assay type: cell-based; settings: 16 h, normalized to DMSO control

binding to purified HDAC8 on small-molecule microarray (purified HDAC8): binder
SMILES: CC(=O)Nc1ccc(C(=O)CSc2nc(C)cc(O)n2)cc1 [Compound 7]
interference with the proteolytic activity of trypsin (trypsin): does not interfere with the proteolytic activity of trypsin

SMILES: Nc1ccccc1NC(=O)c1ccc(CNC(=O)OCc2cccnc2)cc1 [MS-275]
acetylated α-tubulin level [1]: little change in tubulin acetylation
acetylated lysine level [2]: increased global lysine acetylation

SMILES: O=C(CCCCCCC(=O)Nc1ccccc1)NO [SAHA, suberoylanilide hydroxamic acid]
acetylated α-tubulin level [1]: increases both global lysine and α-tubulin acetylation levels
acetylated lysine level [2]: increases both global lysine and α-tubulin acetylation levels

Source: publication PMC3248787 (Bioorganic & medicinal chemistry letters, 2011)
